The results in this text go back to patent US11899021B2, “Luciferase-based thermal shift assays” (Promega Corporation, priority 2015, dated 2024).

The target of data set [1] is T1, HDAC1-Nluc (Homo sapiens, UniProt Q13547).
T1 construct: NanoLuc luciferase (Nluc); expressed in transfected cells; host or cells: HeLa
The data set is described as follows: Direct-luciferase-detection thermal shift assay, HDAC1-Nluc (Example 7). The class given is binding. As to conditions: HeLa cells then digitonin, 10 uL of 1 mM stock per well. The method, then:
(§1) The cells were seeded into 96-well tall-chimney PCR plate (Fisherbrand) at a density of 2×10^4 cells/well in a 90 uL/well volume and treated with 10 uL of 10% DMSO (Sigma) or 10 uL of a 1 mM stock solution of test compound in 10% DMSO. […] The plates were placed into a thermal cycler (MW Research) where the samples were heated individually at different temperatures spanning a gradient of 42-66° C. across the plate for 3 minutes followed by cooling at 22° C. for 3 minutes. 100 uL/well was then transferred to a tissue culture plate (Corning), and luminescence was measured on a BMG Clariostar luminometer equipped with a 450 nm BP filter. Data was normalized by relating RLU signals to the RLU of the lowest temperature for the respective sample.

The nature of data set [2]: Optical property of dyes in DMSO (Table 1). The class given is physicochemical. As to conditions: for Optical Property (in DMSO) Excitation: unit assumed.
Data set [3] deals with T2, CDK2-Nluc (Homo sapiens, UniProt P24941).
T2 construct: NanoLuc luciferase (Nluc); expressed in transfected cells; host or cells: HeLa
In words: Direct-luciferase-detection thermal shift assay, compound selectivity, CDK2-Nluc (Example 6). The format is binding. As to conditions: HeLa cells then digitonin, 10 uL of 1 mM stock per well. How it is done: as §1, with “HeLa cells were transfected separately with CDK2-Nluc or Nluc-ABL1 DNA at a 1:100 DNA ratio and incubated overnight. […] The cells” for “The cells”, “plates were then incubated for ½ hour in a humidified, 37° C./5% CO2 incubator prior to addition of 10 uL/well of a 0.5 mg/ml solution of digitonin (Sigma) and 10% DMSO (Sigma). The plates were placed into” for “plates were placed into”, “3 minutes. Furimazine Live Cell Substrate (Promega) was added to a final concentration of 1× in 20 uL/well volume. 100 uL/well” for “3 minutes. 100 uL/well”, “respective sample. Data was then fitted to obtain apparent melting temperature where the protein was precipitating (Tagg values) using the Boltzmann Sigmoidal equation with Graphpad Prism software.” for “respective sample.”

Data set [4] deals with T3, Nluc-ABL1 (Homo sapiens, UniProt P00519).
T3 construct: NanoLuc luciferase (Nluc); expressed in transfected cells; host or cells: HeLa
T3 sequence (P00519 whole entry): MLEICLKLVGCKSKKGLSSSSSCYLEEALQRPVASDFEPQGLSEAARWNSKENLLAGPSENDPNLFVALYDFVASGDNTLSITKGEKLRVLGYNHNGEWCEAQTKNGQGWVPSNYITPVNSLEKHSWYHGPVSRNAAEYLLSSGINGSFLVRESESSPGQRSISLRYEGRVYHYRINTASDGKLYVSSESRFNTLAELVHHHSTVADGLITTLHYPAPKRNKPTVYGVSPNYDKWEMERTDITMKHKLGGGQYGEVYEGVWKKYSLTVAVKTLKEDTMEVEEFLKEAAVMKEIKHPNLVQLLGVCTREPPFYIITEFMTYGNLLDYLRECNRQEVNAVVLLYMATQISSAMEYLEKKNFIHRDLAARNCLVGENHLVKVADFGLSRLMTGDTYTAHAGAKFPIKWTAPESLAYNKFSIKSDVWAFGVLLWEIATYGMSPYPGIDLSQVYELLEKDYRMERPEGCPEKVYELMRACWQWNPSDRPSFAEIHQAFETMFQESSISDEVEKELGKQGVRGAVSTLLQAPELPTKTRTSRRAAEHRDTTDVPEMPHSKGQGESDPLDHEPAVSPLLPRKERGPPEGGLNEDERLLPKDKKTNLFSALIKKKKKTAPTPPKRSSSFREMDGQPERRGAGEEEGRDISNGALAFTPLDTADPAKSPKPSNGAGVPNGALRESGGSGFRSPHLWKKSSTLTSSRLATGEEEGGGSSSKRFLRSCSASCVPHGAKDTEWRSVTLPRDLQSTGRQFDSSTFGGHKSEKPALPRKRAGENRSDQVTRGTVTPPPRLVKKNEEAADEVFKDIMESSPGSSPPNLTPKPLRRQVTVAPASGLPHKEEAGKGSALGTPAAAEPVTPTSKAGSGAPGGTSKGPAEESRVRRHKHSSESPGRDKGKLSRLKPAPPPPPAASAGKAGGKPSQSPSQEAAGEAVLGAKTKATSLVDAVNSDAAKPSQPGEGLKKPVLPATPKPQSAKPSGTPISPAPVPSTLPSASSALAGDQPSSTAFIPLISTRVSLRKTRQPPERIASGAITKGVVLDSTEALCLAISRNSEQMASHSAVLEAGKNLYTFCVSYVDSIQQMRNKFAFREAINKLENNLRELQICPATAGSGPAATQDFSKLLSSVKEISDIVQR
In words: Direct-luciferase-detection thermal shift assay, compound selectivity, Nluc-ABL1 (Example 6). As to conditions: Nluc-ABL1, HeLa cells then digitonin, 10 uL of 1 mM stock per well. The class given is binding. How it is done:
as §1, with “HeLa cells were transfected separately with CDK2-Nluc or Nluc-ABL1 DNA at a 1:100 DNA ratio and incubated overnight. […] The cells” for “The cells”, “plates were then incubated for ½ hour in a humidified, 37° C./5% CO2 incubator prior to addition of 10 uL/well of a 0.5 mg/ml solution of digitonin (Sigma) and 10% DMSO (Sigma). The plates were placed into” for “plates were placed into”, “3 minutes. Furimazine Live Cell Substrate (Promega) was added to a final concentration of 1× in 20 uL/well volume. 100 uL/well” for “3 minutes. 100 uL/well”, “respective sample. Data was then fitted to obtain apparent melting temperature where the protein was precipitating (Tagg values) using the Boltzmann Sigmoidal equation with Graphpad Prism software.” for “respective sample.”

Structures are written as SMILES.

T1 sequence (Q13547 whole entry): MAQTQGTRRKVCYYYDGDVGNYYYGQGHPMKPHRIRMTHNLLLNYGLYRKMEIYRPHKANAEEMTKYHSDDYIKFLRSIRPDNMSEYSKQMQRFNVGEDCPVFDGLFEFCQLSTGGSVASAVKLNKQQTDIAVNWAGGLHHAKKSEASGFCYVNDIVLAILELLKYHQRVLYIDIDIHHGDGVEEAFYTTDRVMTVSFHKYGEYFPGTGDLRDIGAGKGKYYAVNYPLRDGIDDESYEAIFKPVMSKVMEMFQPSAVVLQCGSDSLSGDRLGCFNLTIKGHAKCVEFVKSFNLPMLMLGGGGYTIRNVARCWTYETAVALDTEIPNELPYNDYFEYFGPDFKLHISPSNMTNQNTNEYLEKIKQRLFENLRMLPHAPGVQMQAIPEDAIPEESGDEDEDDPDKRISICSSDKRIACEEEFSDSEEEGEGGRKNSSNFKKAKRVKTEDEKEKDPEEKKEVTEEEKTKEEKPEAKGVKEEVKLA

With `O=C(CCCCCCNC(=O)c1cnc(N(c2ccccc2)c2ccccc2)nc1)NO` [ACY1215], the “shift in melting temperature (apparent Tagg) compared to the controls” value in data set [1] is reported as “significant shift in melting temperature (apparent Tagg)”. With `CCCCCCN(CCCCCC)c1ccc(/C=C/C2=[N+](C)c3ccccc3C2(C)C)cc1.[I-]` [CS0067], in data set [2], the Optical Property (in DMSO) Emission is 550 nm and the Optical Property (in DMSO) Excitation was 604 nm. The matching figures for `CCCCCCN(CCCCCC)c1ccc(/C=C/c2cc[n+](CCC(F)(F)C(F)(F)C(F)(F)C(F)(F)C(F)(F)C(F)(F)F)cc2)cc1.[I-]` [CS0121, (E)-4-(4-(dihexylamino)styryl)-1-(3,3,4,4,5,5,6,6,7,7,8,8,8-tridecafluorooctyl)pyridin-1-iumiodide]: 480 nm and 620 nm. As to `CCCCCCN(CCCCCC)c1cccc2c(/C=C/c3cc[n+](CCCS(=O)(=O)[O-])cc3)cccc12` [CS0071], the “Optical Property (in DMSO) Emission” value in data set [2] is “not fluorescent”. Take `CCCCCCN(CCCCCC)c1ccc(/C=C/c2cccc[n+]2CCCS(=O)(=O)[O-])cc1` [CS0020]: in data set [2], the Optical Property (in DMSO) Emission was 468 nm and the Optical Property (in DMSO) Excitation amounted to 602 nm. As for `CCCCCCN(CCCCCC)c1ccc(/C=C/c2ccc3ccccc3[n+]2C)cc1.[I-]` [CS0085], in data set [2], the Optical Property (in DMSO) Emission amounted to 532 nm and the Optical Property (in DMSO) Excitation is 640 nm.

As to `CCCCCCN(CCCCCC)c1ccc(/C=C/c2cc[n+](CCCC(=O)NCCOCCOCCOCCC(=O)O)cc2)cc1.[Br-]` [CS0045, (E)-1-(1-Carboxy-13-oxo-3,6,9-trioxa-12-azahexadecan-16-yl)-4-(4-(dihexylamino)styryl)pyridin-1-ium chloride], in data set [2], the Optical Property (in DMSO) Emission worked out at 480 nm and the Optical Property (in DMSO) Excitation is 622 nm. In data set [2], `CCCCCCN(CCCCCC)c1ccc(/C=C/c2cc[n+](CCCS(=O)(=O)[O-])cc2)c2ccccc12` [CS0038] came in with an Optical Property (in DMSO) Emission of 462 nm and an Optical Property (in DMSO) Excitation of 654 nm. In data set [2], `C[n+]1c(/C=C/c2ccc3ccccc3c2)ccc2ccccc21.[I-]` [CS0087] registered an Optical Property (in DMSO) Emission of 400 nm and an Optical Property (in DMSO) Excitation of 550 nm.

In data set [2], `CCCCCCN(CCCCCC)c1ccc(/C=C/c2cc[n+](CCCC(=O)NCCOCCOCCOCCC(=O)NCCCS(=O)(=O)[O-])cc2)cc1` [CS0048, (E)-21-(4-(4-(Dihexylamino)styryl)pyridin-1-ium-1-yl)-5,18-dioxo-8,11,14-trioxa-4,17-diazahenicos-ane-1-sulfonate] displayed an Optical Property (in DMSO) Emission of 478 nm and an Optical Property (in DMSO) Excitation of 620 nm. In data set [2], `CCCCCCN(CCCCCC)c1ccc(/C=C/c2cc[n+](CCCS(=O)(=O)[O-])c3ccccc23)cc1` [CS0028] showed an Optical Property (in DMSO) Emission of 560 nm and an Optical Property (in DMSO) Excitation of 680 nm. The matching figures for `CCCCCCN(CCCCCC)c1ccc(/C=C/C=C/c2cc[n+](CCCC(=O)NCCOCCOCCOCCC(=O)OC(C)(C)C)cc2)cc1` [CS0147]: 516 nm and 702 nm. `Cc1cn(-c2cc(NC(=O)c3ccc(C)c(Nc4nccc(-c5cccnc5)n4)c3)cc(C(F)(F)F)c2)cn1` [Nilotinib]: the “shift in apparent Tagg compared to DMSO controls” value in data set [3] is “did not result in a significant shift in apparent Tagg”. As to `CCCCCCN(CCCCCC)c1ccc(/C=C/c2cc[n+](CCCC(=O)N(CCCS(=O)(=O)[O-])CCCS(=O)(=O)O)cc2)cc1` [CS0073, (E)-3-(4-(4-(4-(Dihexylamino)styryl)pyridin-1-ium-1-yl)-N-(3-sulfopropyl)butanamido)propane-1-sulfonate], in data set [2], the Optical Property (in DMSO) Emission came to 480 nm and the Optical Property (in DMSO) Excitation is 620 nm. For `CCCCCCN(CCCCCC)c1ccc(/C=C/c2ccc3c(ccc[n+]3CCCS(=O)(=O)[O-])c2)cc1` [CS0072], the “Optical Property (in DMSO) Emission” value in data set [2] was “not fluorescent”. Consider `CCCCCCN(CCCCCC)c1ccc(/C=C/c2cc[n+](C34CC5CC(CC(C5)C3)C4)cc2)cc1.[Br-]` [CS0096], for which, in data set [2], the Optical Property (in DMSO) Emission was found to be 480 nm and the Optical Property (in DMSO) Excitation came out at 618 nm.

As to `CCCCCCN(CCCCCC)c1ccc(/C=C/c2cc[n+](CCCC(=O)OCC)cc2)cc1.[Br-]` [CS0101, (E)-4-(4-(Dihexylamino)styryl)-1-(4-ethoxy-4-oxobutyl)pyridin-1-ium bromide], in data set [2], the Optical Property (in DMSO) Emission is 480 nm and the Optical Property (in DMSO) Excitation was 624 nm.

As to `CCCCCCN(CCCCCC)c1ccc(/C=C/c2ccncc2)cc1` [CS0117, (E)-N,N-Dihexyl-4-(2-(pyridin-4-yl)vinyl)aniline], in data set [2], the Optical Property (in DMSO) Emission was 468 nm and the Optical Property (in DMSO) Excitation worked out at 620 nm.

As for `Nc1ccccc1NC(=O)c1ccc(CNc2nccc(-c3cccnc3)n2)cc1` [Mocetinostat], the “shift in melting temperature (apparent Tagg) compared to the controls” value in data set [1] is “significant shift in melting temperature (apparent Tagg)”. Turning to `CCCCCCN(CCCCCC)c1ccc(/C=C/C=C/c2cc[n+](CCC[N+](C)(C)C)cc2)cc1` [CS0155], in data set [2], the Optical Property (in DMSO) Emission is 516 nm and the Optical Property (in DMSO) Excitation came out at 702 nm.

Take `CCCCCCN(CCCCCC)c1ccc(/C=C/c2cc[n+](CCCC(=O)NCCCS(=O)(=O)[O-])cc2)cc1` [CS0043]: in data set [2], the Optical Property (in DMSO) Emission is 468 nm and the Optical Property (in DMSO) Excitation came out at 620 nm. The matching figures for `CCCCCCN(CCCCCC)c1ccc(/C=C/c2cc[n+](CC)cc2)cc1.[OH-]` [CS0112]: 480 nm and 620 nm. The matching figures for `CCCCCCN(CCCCCC)c1ccc(/C=C/c2cc[n+](CCCC(=O)O)cc2)cc1.[Br-]` [CS0036, (E)-1-(3-Carboxypropyl)-4-(4-(dihexylamino)styryl)pyridin-1-ium chloride]: 480 nm and 624 nm. Take `Cn1c(NC[C@@H](N)Cc2ccccc2)nc(-c2ccncc2)c(-c2ccc3ccccc3c2)c1=O` [AMG548]: the results for the “shift in apparent Tagg compared to DMSO controls” value in data set [3] and in data set [4] were “did not result in a significant shift in apparent Tagg” and “did not”, respectively. The like results for `C[S+]([O-])c1ccc(-c2nc(-c3ccncc3)c(-c3ccc(F)cc3)[nH]2)cc1` (stereo not shown) [SB203580] were, in that order, “did not result in a significant shift in apparent Tagg” and “did not”. For the compound `CCCCCCN(CCCCCC)c1ccc(/C=C/C=C/c2cc[n+](CCCS(=O)(=O)[O-])cc2)cc1` [CS0024], in data set [2], the Optical Property (in DMSO) Emission is 516 nm and the Optical Property (in DMSO) Excitation turned out to be 702 nm. The like results for `CCCCCCN(CCCCCC)c1ccc(/C=C/c2cc[n+](CCCC(=O)NCCOCCOCCOCCC(=O)OC(C)(C)C)cc2)cc1.[Br-]` [CS0100, (E)-4-(4-(Dihexylamino)styryl)-1-(2,2-dimethyl-4,17-dioxo-3,7,10,13-tetraoxa-16-azaicosan-20-yl)pyridin-1-ium chloride] were, in that order, 480 nm and 622 nm.
